Source: patent US20200254014A1, “ANTIMICROBIAL COMPOSITIONS AND METHODS FOR THEIR PRODUCTION” (National University of Ireland, Galway, priority 2013, published 2020)

Legend:
E. coli ATCC 25922 [1] = assay: MIC of iodine based antimicrobials in absence and presence of organic material; assay type: cell-based
Description: As a comparison, PVP-1 or povidone iodine, used frequently in hospital setting as a topical antiseptic, was used as a source of free iodine (12).

E. coli ATCC 25922 [2] = assay type: cell-based
Method: In an attempt to induce a tolerance to an antimicrobial, the micro-broth dilution method was utilised, with repeated passaging, with E. coli ATCC 25922 and a number of antibiotics, as well as the composition of the invention containing hydrogen peroxide and potassium iodide. […] Doubling dilutions of antimicrobial compositions were made using a 96 well plate. The well contents were inoculated with 10^4 cfu ml^−1 E. coli ATCC 25922 and allowed to incubate.

S. aureus BH1CC (MRSA) = settings: strain isolated from Beaumont hospital; cited from earlier work

Molecule: OO [Example H2O2, hydrogen peroxide]
- MIC (E. coli ATCC 25922 [1]; broth): 20 to 40 mg/L

Molecule: C[C@H]1COc2c(N3CCN(C)CC3)c(F)cc3c(=O)c(C(=O)O)cn1c23 [levofloxacin]
- increase in tolerance versus pre-passaging (E. coli ATCC 25922 [2]; after 10 passages): 8 times

Molecule: Cc1onc(-c2ccccc2)c1C(=O)N[C@@H]1C(=O)N2[C@@H]1SC(C)(C)[C@@H]2C(=O)O [oxacillin]
- oxacillin MIC (S. aureus BH1CC (MRSA)): > 256 mg/L

Molecule: polymyxin B
- resistance of the organism after passaging in presence of the antibiotic (E. coli ATCC 25922 [2]; after only 8 passages): completely resistant

Molecule: polyvinylpyrrilidone, PVP-I, also known as povidone-iodine
- MIC (E. coli ATCC 25922 [1]; in LB): >250 mg/L
- MIC (E. coli ATCC 25922 [1]; milk): >250 mg/L
- MIC (E. coli ATCC 25922 [1]; saline): 1 to 2 mg/L
